Data from patent US20090081279A1, “Skin Dressings” (priority 2005, published 2009).

Columns and labels:
moist skin = test: Skin reddening (dermal vasodilation) after applying dried PVA layer with pre-generated GSNO onto moist skin; format: in vivo
Text: GSNO can be released from the layer simply by applying the layer onto a moist surface (e.g. wound bed). Once released, GSNO undergoes a slow decomposition to generate nitric oxide. The release of GSNO from the layer is relatively rapid.

[1] = Effect of pH on production/decomposition of GSNO in aqueous solution of potassium nitrite and L-glutathione; format: physicochemical
Protocol: The following reagents were prepared: • Reagent 1: Na-phosphate buffer (pH 7.4, 0.1 M) • Reagent 2: Griess reagent: 20 mg of N-(1-Naphthyl)ethylendiamine dihydrochloride (NADD)+500 mg of sulphanilamide dissolved in 2 mL of DMSO. (N.B. This solution is light sensitive and should be kept in the dark as much as possible) • Reagent 3: Mercuric chloride (10 mM) in DMSO (13.58 mg of HgCl2 in 5 mL of DMSO)
The six-step procedure set out below was then followed: • 1. Dispense 1.5 mL of Reagent 1 into a plastic cuvette • 2. Add 200 μL of the sample (i.e. sample in which GSNO concentration is to be determined) • 3. Add 1.17 mL of DI water • 4. Add 100 μL of Reagent 2 • 5. Add 30 μL of Reagent 3 and give the solution a good mix • 6. Read absorbance of the resulting mixture at 496 nm in 10 min.
The concentration of GSNO can be calculated from the absorbance reading using the molar absorption coefficient for GSNO=12,500 M^−1 cm^−1.
The rate of the GSNO production and subsequent decomposition in solutions containing potassium nitrite (5 mM) and L-glutathione (5 mM) was studied at pH 3 (citrate-phosphate buffer, 0.1 M), pH 5 (citrate-phosphate buffer, 0.1 M) and pH 7 (phosphate buffer, 0.1 M).

[2] = Stability of GSNO in dried PVA layer; format: physicochemical; details: in the dried layer of PVA, especially if stored in a moisture-free atmosphere
Protocol: In one preferred embodiment of this type, the dressing comprises a layer of dried PVA containing pre-generated S-nitrosothiol. The layer is formed from PVA, a source of nitrite (preferably potassium nitrite) and a thiol (preferably L-glutathione). In a typical example of this embodiment both of these additives are added to the PVA solution prior to the drying. S-nitrosothiol (GSNO in the preferred case) is generated within the layer during the drying step. Nitrosothiols are known to be rather unstable in aqueous solutions. Nevertheless, GSNO was found very stable in the dried layer of PVA, especially if stored in a moisture-free atmosphere.

[3] = under normal conditions; cited from earlier work
[4] = under normal conditions; cited from earlier work; remark: listed apart in the source

SMILES	Reversibility of skin reddening (moist skin; after removal of the patch)	Time to reddening of the skin due to dermal vasodilation (moist skin; dried PVA layer with pre-generated GSNO applied onto moist skin)	Stability of GSNO produced ([1]; pH 5 compared with pH 3)	Initial production of GSNO ([1]; pH 5 compared with pH 3 (citrate-phosphate buffer, 0.1 M))	Production of GSNO ([1]; pH 7 (phosphate buffer, 0.1 M), potassium nitrite 5 mM, L-glutathione 5 mM)	Stability of GSNO [2]	Time to total (100%) decomposition [3]	Maximum solubility in water [4]
N[C@@H](CCC(=O)N[C@@H](CSN=O)C(=O)NCC(=O)O)C(=O)O [GSNO, S-nitrosoglutathione]	totally reversible	≤ 1 min	slightly higher at pH 5 compared with that at pH 3	slower at pH 5 compared with pH 3	No production	very stable	hours/days	–
[N]=O [NO, Nitric oxide]	–	–	–	–	–	–	–	approximately 1.7 mM
